Laboratory results: ChEMBL document CHEMBL5528007, “Synthetic GPR40/FFAR1 agonists: An exhaustive survey on the most recent chemical classes and their structure-activity relationships” (Eur J Med Chem, 2024)
Each block holds one compound with its values, some of them ahead of it.

Tests used:
[1] = biological target: T1, Free fatty acid receptor 1 (Homo sapiens, UniProt O14842); assay: Agonist activity at human recombinant GPR40 expressed in CHO cells by Fluo4-AM dye based intracellular calcium flux assay relative to control; format: functional, cell-based
[2] = biological target: T2, Peroxisome proliferator-activated receptor gamma (Homo sapiens) (UniProt P37231); assay: Agonist activity at PPARgamma (unknown origin) assessed as fold increase in calcium by Fluo4-AM dye based intracellular calcium flux assay; format: cell-based; details: filed as agonist
T2 sequence (whole entry): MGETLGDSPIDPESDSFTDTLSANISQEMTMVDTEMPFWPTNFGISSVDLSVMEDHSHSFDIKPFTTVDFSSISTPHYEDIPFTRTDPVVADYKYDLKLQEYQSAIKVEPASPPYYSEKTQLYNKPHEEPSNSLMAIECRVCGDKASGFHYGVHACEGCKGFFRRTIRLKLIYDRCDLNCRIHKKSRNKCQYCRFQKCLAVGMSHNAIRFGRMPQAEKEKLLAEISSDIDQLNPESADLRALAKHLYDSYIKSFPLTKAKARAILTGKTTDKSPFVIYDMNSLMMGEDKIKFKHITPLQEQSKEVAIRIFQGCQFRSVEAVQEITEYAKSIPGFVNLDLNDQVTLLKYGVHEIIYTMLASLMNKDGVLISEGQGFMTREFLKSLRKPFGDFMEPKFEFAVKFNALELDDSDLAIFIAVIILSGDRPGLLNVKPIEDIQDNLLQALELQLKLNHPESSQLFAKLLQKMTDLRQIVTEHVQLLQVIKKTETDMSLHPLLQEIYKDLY

[3] = biological target: T1, Free fatty acid receptor 1; assay: Agonist activity at human FFA1 expressed in CHO cells by Fluo4-AM dye based intracellular calcium flux assay; format: functional, cell-based
[4] = biological target: T1, Free fatty acid receptor 1; assay: Agonist activity at human recombinant GPR40 stably expressed in HEK293 cells at 0.1 uM incubated for 24 hrs by FLIPR assay relative to control; format: functional, cell-based
[5] = biological target: T1, Free fatty acid receptor 1; assay: Agonist activity at human FFA1 stably expressed in CHO cells at 300 nM by Fluo4-AM dye based intracellular calcium flux FLIPR assay relative to control; format: functional, cell-based
GPR40-Galpha16 = GPR40-Galpha16 (Homo sapiens, UniProt O14842+P30679); assay: Agonist activity at human GPR40/Galpha-16 expressed in HEK293 cells by Fluo4-AM dye based intracellular calcium flux assay
[6] = biological target: T1, Free fatty acid receptor 1; assay: Agonist activity at human GPR40 expressed in HEK293 cells by Fluo4-AM dye based intracellular calcium flux assay; format: functional, cell-based
[7] = biological target: T1, Free fatty acid receptor 1; assay: Agonist activity at human recombinant FFA1 stably expressed in CHO cells assessed as increase in calcium flux by Fluo4-AM dye based FLIPR assay; format: functional, cell-based
[8] = biological target: T1, Free fatty acid receptor 1; assay: Agonist activity at human […] expressed in HEK293 cells incubated for 40 mins by Fluo4-AM dye based intracellular calcium flux assay; format: functional, cell-based
[9] = biological target: T1, Free fatty acid receptor 1; assay: Agonist activity at human GPR40 stably expressed in CHO cells assessed as increase in intracellular calcium concentration by FLIPR assay; format: functional, cell-based

T1 sequence (O14842 whole entry): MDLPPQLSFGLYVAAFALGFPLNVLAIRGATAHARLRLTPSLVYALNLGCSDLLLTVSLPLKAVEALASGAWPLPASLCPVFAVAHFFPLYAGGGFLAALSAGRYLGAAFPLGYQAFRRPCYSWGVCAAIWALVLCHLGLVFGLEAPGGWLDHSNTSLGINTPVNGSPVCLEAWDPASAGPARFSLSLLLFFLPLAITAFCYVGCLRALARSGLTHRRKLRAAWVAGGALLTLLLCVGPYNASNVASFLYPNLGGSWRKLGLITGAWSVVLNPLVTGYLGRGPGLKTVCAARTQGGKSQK
GPR40-Galpha16, sequence (O14842 whole entry): as above
GPR40-Galpha16, sequence (P30679 whole entry): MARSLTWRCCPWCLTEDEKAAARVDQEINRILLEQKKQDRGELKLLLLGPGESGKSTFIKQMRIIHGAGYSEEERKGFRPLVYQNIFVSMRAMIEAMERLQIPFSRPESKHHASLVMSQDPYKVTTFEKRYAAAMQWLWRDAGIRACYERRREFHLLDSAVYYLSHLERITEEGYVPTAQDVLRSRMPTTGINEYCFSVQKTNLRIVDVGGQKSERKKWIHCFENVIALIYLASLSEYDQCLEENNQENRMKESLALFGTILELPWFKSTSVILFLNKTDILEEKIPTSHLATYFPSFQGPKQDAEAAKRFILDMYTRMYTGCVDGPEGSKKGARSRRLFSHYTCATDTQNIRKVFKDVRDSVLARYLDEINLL

- Activity ([1]; filed as agonist): 55.1%
Structure (SMILES): CC1CCN(Cc2c(C(F)(F)F)ccc3c2CC[C@H]3Oc2ccc([C@H](CC(=O)O)c3ccon3)cc2)CC1

- fold change (FC) [2]: 2
Structure (SMILES): O=C(O)COc1ccc(NC(=O)CSc2nc3ccccc3[nH]2)cc1

- EC50 [3]: 19.1 nM
Structure (SMILES): [2H]C([2H])(Cc1ccc(OCc2cccc(-c3ccccc3C)c2)cc1)C(=O)O

- Activity ([4]; filed as agonist): 51.7%
Structure (SMILES): Cc1ccc(O[C@H]2CCOC2)cc1-c1cccc2c1CC[C@H]2Oc1ccc(OCC(=O)O)cc1

- Activity [5]: 23.5%
Structure (SMILES): O=C(O)CC1COc2cc(OCc3cccc(OCc4ccccc4)c3)ccc21 (configuration not stated)

- EC50 [3]: 72.2 nM
Structure (SMILES): [2H]C([2H])(Cc1ccc(OCc2cccc(-c3c(C)cc(OCCCS(C)(=O)=O)cc3C)c2)cc1)C(=O)O

- fold change (FC) [2]: 2
Structure (SMILES): COc1ccc2[nH]c(SCC(=O)Nc3ccc(OCC(=O)O)cc3)nc2c1

- Activity ([5]; filed as agonist): 52.7%
Structure (SMILES): O=C(O)CC1COc2cc(OCc3cccc(O/C=C/Oc4ccccc4)c3)ccc21 (configuration not stated)

- EC50 (GPR40-Galpha16): 48 nM
Structure (SMILES): O=C(O)CCc1ccc(NCc2cccc(Oc3ccccc3)c2)cc1 [GW9508]

- Activity [5]: 23.7%
Structure (SMILES): Cc1ccc(S(=O)(=O)Nc2cccc(COc3ccc4c(c3)OCC4CC(=O)O)c2)cc1 (configuration not stated)

- EC50 [6]: 1220 nM
Structure (SMILES): CC(C)(CCCCCCCCCCC(C)(C)CC(=O)O)CC(=O)O

- EC50 [7]: 1390 nM
Structure (SMILES): Cc1ccccc1-c1cccc(COc2ccc(OCC(=O)O)c(F)c2)c1

- Activity ([4]; filed as agonist): 133%
Structure (SMILES): Cc1ccc(O[C@H]2CCOC2)cc1-c1cc(COc2ccc(OCC(=O)O)cc2)cc2c1CCC2

- Activity ([4]; filed as agonist): 47%
Structure (SMILES): Cc1cc(O[C@H]2CCOC2)cc(C)c1-c1cccc2c1CC[C@H]2Oc1ccc(OCC(=O)O)cc1

- Activity ([5]; filed as agonist): 50.4%
Structure (SMILES): O=C(O)CC1COc2cc(OCc3cccc(NC(=O)c4coc5ccccc45)c3)ccc21 (configuration not stated)

- EC50 [8]: 100000 nM
Structure (SMILES): O=C(O)CCc1ccc(OCc2ccc3ccccc3n2)cc1

- Activity ([1]; filed as agonist): 48.2%
Structure (SMILES): O=C(O)C[C@@H](c1ccc(O[C@@H]2CCc3c2ccc(C(F)(F)F)c3CN2CCCCCC2)cc1)c1ccon1

- Activity [1]: 16.5%
Structure (SMILES): O=C(O)C[C@@H](c1ccc(O[C@@H]2CCc3c2ccc(C(F)(F)F)c3CN2CCCCC2)cc1)c1ccon1

- EC50 [3]: 42.7 nM
Structure (SMILES): [2H]C([2H])(Cc1ccc(OCc2cccc(-c3c(C)cccc3C)c2)cc1)C(=O)O

- Activity ([1]; filed as agonist): 45.2%
Structure (SMILES): O=C(O)C[C@@H](c1ccc(O[C@@H]2CCc3c2ccc(C(F)(F)F)c3CN2CCC(F)CC2)cc1)c1ccon1

- EC50 [9]: 13200 nM
Structure (SMILES): Cc1cccc(C(=O)Nc2ccc(CC(=O)O)cc2)c1

- Activity [4]: 1.8%
Structure (SMILES): Cc1ccc(O[C@H]2CCOC2)cc1-c1cc(COc2ccc(OCC(=O)O)cc2)cc2c1OCC2
